O=c1c(-c2ccc(O)cc2)coc2cc(O[C@@H]3O[C@H](CO)[C@@H](O)[C@H](O)[C@H]3O)ccc12
solubility (mole fraction)
Settings	283.2 K	293.2 K	303.2 K	313.2 K	323.2 K
in THF	0.000784	0.00182	0.00684	0.0165	0.0417
in acetone	0.000148	0.000241	0.000326	0.000458	0.000553
in acetonitrile	5.77e-06	9e-06	1.4e-05	2e-05	3.3e-05
in chloroform	3.83e-07	8.76e-07	1.6e-06	2.36e-06	3.2e-06
in cyclohexane	1.25e-07	2.95e-07	5.56e-07	1.02e-06	1.37e-06
in ethanol	0.000291	0.000397	0.000499	0.000669	0.000813
in ethyl acetate	5.38e-06	7.88e-06	1.58e-05	4.24e-05	6.74e-05
in isopropanol	0.00016	0.000202	0.000283	0.000427	0.000503
in methanol	8.78e-05	0.000162	0.000339	0.000516	0.000794
in n-butanol	0.000141	0.000211	0.000253	0.000353	0.000479
in water	2.36e-06	4.1e-06	6.91e-06	9.39e-06	1.58e-05

From BigSolDB 2.1
